This passage reports IC50 results from patent US9540391B2, “Isomannide derivatives as inhibitors of soluble epoxide hydrolase” (SANOFI, priority 2013, dated 2017).

The test concerns the target T1, recombinant sEH (Homo sapiens, UniProt P34913).
T1 construct: made in house; host or cells: Sf9 insect cells
T1 sequence (P34913 1-555): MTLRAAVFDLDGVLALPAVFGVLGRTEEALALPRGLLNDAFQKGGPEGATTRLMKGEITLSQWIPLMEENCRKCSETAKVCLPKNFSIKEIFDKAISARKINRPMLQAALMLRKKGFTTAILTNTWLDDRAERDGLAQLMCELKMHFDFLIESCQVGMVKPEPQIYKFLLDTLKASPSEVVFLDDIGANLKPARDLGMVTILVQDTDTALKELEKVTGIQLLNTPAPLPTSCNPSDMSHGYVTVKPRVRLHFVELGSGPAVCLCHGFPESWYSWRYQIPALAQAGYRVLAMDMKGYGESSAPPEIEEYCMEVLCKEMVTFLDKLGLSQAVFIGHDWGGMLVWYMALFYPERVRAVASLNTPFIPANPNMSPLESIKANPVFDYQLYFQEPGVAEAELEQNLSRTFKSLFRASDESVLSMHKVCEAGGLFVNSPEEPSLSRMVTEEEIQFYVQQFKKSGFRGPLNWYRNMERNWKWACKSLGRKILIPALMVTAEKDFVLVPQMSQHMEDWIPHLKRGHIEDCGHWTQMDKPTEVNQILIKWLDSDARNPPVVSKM
As to the kind of experiment: biochemical screening assay for inhibition of soluble epoxide hydrolase (fluorometric, Phome substrate). The protocol:
The ability of the compounds of the formula I to inhibit soluble epoxide hydrolase can be determined as follows:
Compounds were tested in a biochemical screening assay using recombinant sEH purified from Sf9 insect cells and an artificial substrate, (3-phenyl-oxiranyl)-acetic acid cyano-(6-methoxy-naphtalen-2-yl)-methyl ester, Phome. The biochemical assay was performed in analogy to a fluorometric method described in the literature (P. D. Jones et al., Anal. Biochem. 2005, 343, 66-75). The assay principle bases on the sEH-catalyzed hydrolysis of an artificial α-cyano-ester substrate. 0-deacetylation liberates a cyanohydrin intermediate that rapidly decomposes to the highly fluorescent 6-methoxy-2-naphtaldehyde. To discriminate sample autofluorescence, the assay was carried out as a kinetic measurement with two time points. The first measurement is performed immediately before addition of the substrate and the second measurement is done after completion of the assay. The assay format is either in 96- or in 384-well format. Details of the assay using a 96-well plate format are described below. 40 μL recombinant sEH enzyme and 5 μL test compound are pre-incubated for 15 minutes at 30° C. Following pre-incubation, the reaction is started by addition of 5 μL Phome. The assay mixture containing 2 nM final sEH concentration, test compound ranging in a concentration from 0.0001-10 μM and 5 μM Phome is incubated for 60 minutes at 30° C.
Fluorescence can be measured with any suitable detector for instance a TECAN Safire or Tecan Ultra at […]. % inhibition of recombinant sEH activity is used for calculation of corresponding IC50 values as illustrated and described in the examples.
The NCBI gene bank reference sequence with the accession number NM_001979 for EPHX2/sEH was applied for recombinant protein production:
The following commercially available materials have been used: • Incubation reagent: 25 mM Hepes (Sigma-Aldrich, Cat. No H-3375), 0.01% bovine albumin (Sigma-Aldrich Cat. No PA9205) • Substrate: 3-Phenyl-oxiranyl)-acetic acid cyano-(6-methoxy-naphtalen-2-yl)-methyl ester, Phome (Biozol Cat. No 10003134) • Microtiter plates: 96-well plates (Greiner Cat. No 655180; Costar Cat. No 3915)

Counter-ions that a name gives are not always drawn.

Broadly, the IC50 is the midpoint of a concentration-inhibition curve. In the case of `Cc1ccc(O[C@H]2CO[C@H]3[C@@H]2OC[C@@H]3NC(=O)NC2CCCCC2)cn1` [Example 28, 1-Cyclohexyl-3-[(3S,3aR,6S,6aS)-6-(6-methyl-pyridin-3-yloxy)-hexahydro-furo[3,2-b]furan-3-yl]-urea], the IC50 turned out to be 8 nM.

As for `O=C(NC1CCCCC1)N[C@H]1CO[C@H]2[C@@H]1OC[C@@H]2Oc1ccc(F)c(Cl)c1` [Example 29, 1-[(3S,3aR,6S,6aS)-6-(3-Chloro-4-fluoro-phenoxy)-hexahydro-furo[3,2-b]furan-3-yl]-3-cyclohexyl-urea], the IC50 turned out to be 2 nM. Then `O=C(NC1CCCCC1)N[C@H]1CO[C@H]2[C@@H]1OC[C@@H]2Oc1cccc(-n2cnnc2)c1` [Example 30, 1-Cyclohexyl-3-[(3S,3aR,6S,6aS)-6-(3-[1,2,4]triazol-4-yl-phenoxy)-hexahydro-furo[3,2-b]furan-3-yl]-urea], with 2 nM; and `O=C(NC1CCCCC1)N[C@H]1CO[C@H]2[C@@H]1OC[C@@H]2Oc1cc(Cl)cc(Cl)c1` [Example 31, 1-Cyclohexyl-3-[(3S,3aR,6S,6aS)-6-(3,5-dichloro-phenoxy)-hexahydro-furo[3,2-b]furan-3-yl]-urea], with 3 nM.

Take `Cn1ccnc1-c1ccc(O[C@H]2CO[C@H]3[C@@H]2OC[C@@H]3NC(=O)NC2CCCCC2)cc1` [Example 32, 1-Cyclohexyl-3-{(3S,3aR,6S,6aS)-6-[4-(1-methyl-1H-imidazol-2-yl)-phenoxy]-hexahydro-furo[3,2-b]furan-3-yl}-urea]: the IC50 came to 3 nM.

For `O=C(NC1CCCCC1)N[C@H]1CO[C@H]2[C@@H]1OC[C@@H]2Oc1cncc(Cl)c1` [Example 33, 1-[(3S,3aR,6S,6aS)-6-(5-Chloro-pyridin-3-yloxy)-hexahydro-furo[3,2-b]furan-3-yl]-3-cyclohexyl-urea], the IC50 came to 3 nM. On to `Cc1ccc(O[C@H]2CO[C@H]3[C@@H]2OC[C@@H]3NC(=O)NC2CCCCC2)c(C)n1` [Example 34, 1-Cyclohexyl-3-[(3S,3aR,6S,6aS)-6-(2,6-dimethyl-pyridin-3-yloxy)-hexahydro-furo[3,2-b]furan-3-yl]-urea], for which the IC50 was 2 nM. `O=C(NC1CCCCC1)N[C@H]1CO[C@H]2[C@@H]1OC[C@@H]2Oc1cncc(F)c1` [Example 35, 1-Cyclohexyl-3-[(3S,3aR,6S,6aS)-6-(5-fluoro-pyridin-3-yloxy)-hexahydro-furo[3,2-b]furan-3-yl]-urea]: the IC50 came to 12 nM. Then `Cc1cncc(O[C@H]2CO[C@H]3[C@@H]2OC[C@@H]3NC(=O)NC2CCCCC2)c1` [Example 36, 1-Cyclohexyl-3-[(3S,3aR,6S,6aS)-6-(5-methyl-pyridin-3-yloxy)-hexa-hydro-furo[3,2-b]furan-3-yl]-urea], with 1 nM; and `Cc1ccnc(C)c1O[C@H]1CO[C@H]2[C@@H]1OC[C@@H]2NC(=O)NC1CCCCC1` [Example 37, 1-Cyclohexyl-3-[(3S,3aR,6S,6aS)-6-(2,4-dimethyl-pyridin-3-yloxy)-hexa-hydro-furo[3,2-b]furan-3-yl]-urea], with 1 nM.

Take `CCc1nc(C)ccc1O[C@H]1CO[C@H]2[C@@H]1OC[C@@H]2NC(=O)NC1CCCCC1` [Example 38, 1-Cyclohexyl-3-[(3S,3aR,6S,6aS)-6-(2-ethyl-6-methyl-pyridin-3-yloxy)-hexahydro-furo[3,2-b]furan-3-yl]-urea]: the IC50 amounted to 1 nM. The value for `Cc1cc(C)c(O[C@H]2CO[C@H]3[C@@H]2OC[C@@H]3NC(=O)NC2CCCCC2)cn1` [Example 39, 1-Cyclohexyl-3-[(3S,3aR,6S,6aS)-6-(4,6-dimethyl-pyridin-3-yloxy)-hexa-hydro-furo[3,2-b]furan-3-yl]-urea] was 2 nM. Then `N#Cc1ncccc1O[C@H]1CO[C@H]2[C@@H]1OC[C@@H]2NC(=O)NC1CCCCC1` [Example 40, 1-[(3S,3aR,6S,6aS)-6-(2-Cyano-pyridin-3-yloxy)-hexahydro-furo[3,2-b]furan-3-yl]-3-cyclohexyl-urea], with 11 nM; and `Cc1ncc(O[C@H]2CO[C@H]3[C@@H]2OC[C@@H]3NC(=O)NC2CCCCC2)cn1` [Example 41, 1-Cyclohexyl-3-[(3S,3aR,6S,6aS)-6-(2-methyl-pyrimidin-5-yloxy)-hexa-hydro-furo[3,2-b]furan-3-yl]-urea], with 25 nM. The value for `O=C(NC1CCCCC1)N[C@H]1CO[C@H]2[C@@H]1OC[C@@H]2Oc1ccc(C(F)(F)F)nc1` [Example 42, 1-Cyclohexyl-3-[(3S,3aR,6S,6aS)-6-(6-trifluoromethyl-pyridin-3-yloxy)-hexahydro-furo[3,2-b]furan-3-yl]-urea] was 47 nM; that for `Cc1nnc(S[C@H]2CO[C@H]3[C@@H]2OC[C@@H]3NC(=O)NC2CCCCC2)o1` [Example 43, 1-Cyclohexyl-3-[(3S,3aR,6S,6aS)-6-(5-methyl-[1,3,4]oxadiazol-2-ylsulfanyl)-hexahydro-furo[3,2-b]furan-3-yl]-urea] was 86 nM. Regarding `O=C(NC1CCCCC1)N[C@H]1CO[C@H]2[C@@H]1OC[C@@H]2Oc1cncnc1` [Example 44, 1-Cyclohexyl-3-[(3S,3aR,6S,6aS)-6-(pyrimidin-5-yloxy)-hexahydro-furo[3,2-b]furan-3-yl]-urea], the IC50 amounted to 42 nM. The value for `O=C(NC1CCCCC1)N[C@H]1CO[C@H]2[C@@H]1OC[C@@H]2SCC(F)(F)F` [Example 45, 1-Cyclohexyl-3-[(3S,3aR,6S,6aS)-6-(2,2,2-trifluoro-ethylsulfanyl)-hexa-hydro-furo[3,2-b]furan-3-yl]-urea] was 25 nM; that for `O=C(NC1CCCCC1)N[C@H]1CO[C@H]2[C@@H]1OC[C@@H]2Sc1ncccn1` [Example 46, 1-Cyclohexyl-3-[(3S,3aR,6S,6aS)-6-(pyrimidin-2-ylsulfanyl)-hexahydro-furo[3,2-b]furan-3-yl]-urea] was 50 nM. The value for `Cc1cc(C)nc(S[C@H]2CO[C@H]3[C@@H]2OC[C@@H]3NC(=O)NC2CCCCC2)n1` [Example 47, 1-Cyclohexyl-3-[(3S,3aR,6S,6aS)-6-(4,6-dimethyl-pyrimidin-2-ylsulfanyl)-hexahydro-furo[3,2-b]furan-3-yl]-urea] was 51 nM; that for `O=C(NC1CCCCC1)N[C@H]1CO[C@H]2[C@@H]1OC[C@@H]2Sc1ncc[nH]1` [Example 48, 1-Cyclohexyl-3-[(3S,3aR,6S,6aS)-6-(1H-imidazol-2-ylsulfanyl)-hexa-hydro-furo[3,2-b]furan-3-yl]-urea] was 11 nM; that for `O=C(NC1CCCCC1)N[C@H]1CO[C@H]2[C@@H]1OC[C@@H]2Sc1ccncn1` [Example 49, 1-Cyclohexyl-3-[(3S,3aR,6S,6aS)-6-(pyrimidin-4-ylsulfanyl)-hexahydro-furo[3,2-b]furan-3-yl]-urea; hydrochloride] was 3 nM. The value for `Cc1cnc(S[C@H]2CO[C@H]3[C@@H]2OC[C@@H]3NC(=O)NC2CCCCC2)nc1` [Example 50, 1-Cyclohexyl-3-[(3S,3aR,6S,6aS)-6-(5-methyl-pyrimidin-2-ylsulfanyl)-hexahydro-furo[3,2-b]furan-3-yl]-urea; hydrochloride] was 10 nM; that for `O=C(NC1CCCCC1)N[C@H]1CO[C@H]2[C@@H]1OC[C@@H]2Oc1ccc(Cl)nc1` [Example 51, 1-[(3S,3aR,6S,6aS)-6-(6-Chloro-pyridin-3-yloxy)-hexahydro-furo[3,2-b]furan-3-yl]-3-cyclohexyl-urea] was 8 nM; that for `O=C(NC1CCCCC1)N[C@H]1CO[C@H]2[C@@H]1OC[C@@H]2Sc1ncc(Cl)cn1` [Example 52, 1-[(3S,3aR,6S,6aS)-6-(5-Chloro-pyrimidin-2-ylsulfanyl)-hexahydro-furo[3,2-b]furan-3-yl]-3-cyclohexyl-urea] was 1 nM. In the case of `Cc1cc(C)c(S[C@H]2CO[C@H]3[C@@H]2OC[C@@H]3NC(=O)NC2CCCCC2)cn1` [Example 53, 1-Cyclohexyl-3-[(3S,3aR,6S,6aS)-6-(4,6-dimethyl-pyridin-3-ylsulfanyl)-hexahydro-furo[3,2-b]furan-3-yl]-urea], the IC50 was less than 1 nM.
